Experimental data as given in publication PMC10106456 (Communications Biology, 2023).
Values joined by “and” are separate entries in the source; they are usually repeats but may differ in a detail not shown here. Identical values can stand only once. Like-named read-outs stand apart in the source and are kept apart here.

Experiments:
[1] = target: T1, Tet(X6) (Proteus genomosp. 6, UniProt A0A6I7DAX3); experiment: Apparent Tet(X6) inhibitor IC50 (optical absorbance assay); type: biochemical, Proteus genomospecies; details: for IC50: Tet(X6); for Slope (velocity of substrate degradation in presence of aTC): trials 1-3
T1 sequence (A0A6I7DAX3 entry or part of it): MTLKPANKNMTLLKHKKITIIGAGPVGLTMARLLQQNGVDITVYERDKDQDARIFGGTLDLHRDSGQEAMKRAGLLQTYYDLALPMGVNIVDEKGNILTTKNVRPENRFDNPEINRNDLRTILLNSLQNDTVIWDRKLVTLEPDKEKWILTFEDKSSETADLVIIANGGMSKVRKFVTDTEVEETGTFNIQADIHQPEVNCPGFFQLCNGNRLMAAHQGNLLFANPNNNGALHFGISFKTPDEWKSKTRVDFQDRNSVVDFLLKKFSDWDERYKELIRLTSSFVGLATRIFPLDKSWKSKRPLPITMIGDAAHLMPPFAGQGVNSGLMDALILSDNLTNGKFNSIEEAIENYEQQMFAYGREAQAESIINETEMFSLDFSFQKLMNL
Method: All experiments were prepared open to air in non-degassed buffer solutions at room temperature. […] Initial enzyme velocities were determined by linear regression using Agilent Cary WinUV Software over the linear range of the reaction (typically between 0 to 1 min). The velocities were plotted against the logarithm of inhibitor concentration, and apparent IC50 values were determined using nonlinear regression analysis in GraphPad Prism v6. Each set of experiments included a no-TDase control reaction which was used as the full enzyme inhibition velocity and assigned to an inhibitor concentration of 1 × 10^15, as well as a no-inhibitor control which was assigned an inhibitor concentration of 1 × 10^–15.

[2] = target: T1, Tet(X6); experiment: Substrate degradation by scanning optical absorbance spectroscopy; type: biochemical, Proteus genomospecies; details: in the presence of Tet(X6), NADPH, and O2; 20 μM substrate, 2 h
Method: (§1) All in vitro kinetic assays were prepared open to air in non-degassed buffer solutions at room temperature. […] In vitro reactions were monitored by optical absorbance spectroscopy on an Agilent Cary 50 UV-visible spectrophotometer using polystyrene cuvettes. Reaction progress was monitored by optical absorbance spectroscopy (280−550 nm, 1 nm and 5 min intervals) over 2 h. […] The quenched samples were centrifuged (5000 rpm, 4 °C) for 5 min, and 600 μL of the resulting supernatant was mixed with an Fmoc-Ala internal standard (3.12 μM final concentration) and analyzed by LC-MS in positive ion mode (single trial). LC-MS was acquired using an Agilent 6130 single quadrupole instrument (ESI + ) with G1313 autosampler, G1315 diode array detector, and 1200 series solvent module with separation on a Phenomenex Gemini C18 column, 50 × 2 mm (5 um) fit with a guard column cassette. LCMS solvents were 0.1% formic acid in H2O (A) and 0.1% formic acid in acetonitrile (B). […] LCMS data were processed using ChemStation software version B.04.02 SP1. Extracted ion chromatograms (EICs) for the expected [M + H]^+ molecular ions corresponding to substrate and mono-hydroxylated product were normalized to the [M + H]^+ counts for an Fmoc-Ala internal standard.

[3] = tested on: E. coli expressing Tet(X6); type: cell-based; details: pZE24-tetX6, panel concentrations in μg/mL per Supp. Data 3
Method: (§2) For high expression, 1 mM IPTG fully relieves repression by LacI[44] thus only IPTG was used in whole-cell tests. Chemically-competent E. coli DH5αZ1 (Expressys) was transformed with these pZE24 constructs by heat shock. Minimum inhibitory concentrations (MICs) were measured as per Clinical and Laboratory Standards Institute (CLSI) guidelines. Substrates and inhibitors were dissolved in DMSO (20 mg/mL) then diluted to working concentrations in cation-adjusted Mueller-Hinton II broth supplemented with 50 μg/mL kanamycin (Supplementary Data 2). Antibiotic susceptibility testing panels were prepared in 96-well flat-bottom microplates (Corning) by two-fold serial dilution of the antibiotic of interest (Supplementary Data 3). […] Liquid cultures of each strain were grown to exponential phase then diluted to a standard concentration (OD600 = 0.0015, which is equivalent to double ~5 × 10^5 CFU/mL) and inoculated into each panel at a 1:1 ratio. […] Each strain-antibiotic/inhibitor combination was tested in triplicate, along with no-drug and no-cell controls. Inoculated panels were sealed with Breathe-Easy membranes (Sigma-Aldrich) and incubated at 37 °C for 20 h. MICs were scored by absorbance measurements at 600 nm (OD600) using the Synergy H1 microplate reader (Biotek Instruments, Inc).

[4] = tested on: E. coli DH5αZ1 + pZE24-tet(X6); experiment: Microbroth dilution antibiotic susceptibility test (MIC); type: cell-based; details: Escherichia coli
Method: as §2

[5] = tested on: E. coli DH5αZ1 + pZE24-tet(X7); experiment: as above; type: cell-based; details: Escherichia coli, 20 h
Method: as §2

[6] = tested on: E. coli DH5αZ1 + pZE24 (empty); experiment: as above; type: cell-based; details: Escherichia coli, 20 h, drug alone
Method: as §2

[7] = tested on: E. coli DH5αZ1 pZE24-empty; experiment: Checkerboard whole cell inhibition assay (tetracycline + anhydrotetracycline); type: cell-based
Method: as §2

[8] = tested on: E. coli expressing Tet(X7); experiment: as above; type: cell-based; details: pZE24-tetX7, panel concentrations in μg/mL per Supp. Data 3
Method: as §2

[9] = target: T1, Tet(X6); experiment: Substrate degradation by LC-MS (extracted ion counts); type: biochemical, Proteus genomospecies; details: Tet(X6) reaction of aTC
Method: as §1

[10] = target: T1, Tet(X6); details: for Slope (initial velocity of substrate degradation): trials 1-3, absorbance 400 nm (440 nm for aTC)
Method: All experiments were prepared open to air in non-degassed buffer solutions at room temperature. […] Initial enzyme velocities were determined by linear regression using Agilent Cary WinUV Software over the linear range of the reaction (typically between 0 to 1 min), plotted against the concentration of the substrate, and fitted to the Michaelis–Menten or allosteric sigmoidal nonlinear regression equations using GraphPad Prism 6.

Question: How did the IC50 ([1]; IC50, aTC inhibition of ERA degradation, substrate ERA) turn out when `Cc1c2c(c(O)c3c(O)cccc13)C(=O)[C@]1(O)C(=O)C(C(N)=O)=C(O)[C@@H](N(C)C)[C@@H]1C2` [aTC, anhydrotetracycline] was run?
Answer: 9 ± 1 µM

Question: What about the IC50 ([1]; IC50, aTC inhibition of OMA degradation, substrate OMA) of the same compound?
Answer: 12 ± 4 µM

Question: And the IC50 ([1]; IC50, aTC inhibition of TIG degradation, substrate TIG)?
Answer: 2.2 ± 0.2 µM

Question: And the “Slope (velocity of substrate degradation in presence of aTC)” value ([1]; substrate Erav, log[aTC] μM 0.81)?
Answer: 0.0443 and 0.0431 and 0.045

Question: And the “Slope (velocity of substrate degradation in presence of aTC)” value ([1]; substrate Erav, log[aTC] μM 1.41)?
Answer: 0.0266 and 0.0254 and 0.0225

Question: What about the “Slope (velocity of substrate degradation in presence of aTC)” value ([1]; substrate Erav, log[aTC] μM 1.72) of the same compound?
Answer: 0.0176 and 0.0178 and 0.0199

Question: And the “Slope (velocity of substrate degradation in presence of aTC)” value ([1]; substrate Erav, log[aTC] μM 2.07)?
Answer: 0.0149 and 0.0154 and 0.0125

Question: And the “Slope (velocity of substrate degradation in presence of aTC)” value ([1]; substrate Erav, log[aTC] μM 2.16)?
Answer: 0.007 and 0.0075 and 0.0083

Question: What about the “Slope (velocity of substrate degradation in presence of aTC)” value ([1]; substrate Omad, log[aTC] μM 0.81) of the same compound?
Answer: 0.0132 and 0.0149 and 0.0223

Question: And the “Slope (velocity of substrate degradation in presence of aTC)” value ([1]; substrate Omad, log[aTC] μM 1.41)?
Answer: 0.0111 and 0.0097 and 0.0109

Question: What about the “Slope (velocity of substrate degradation in presence of aTC)” value ([1]; substrate Omad, log[aTC] μM 1.72) of the same compound?
Answer: 0.0072 and 0.0051 and 0.0089

Question: And the “Slope (velocity of substrate degradation in presence of aTC)” value ([1]; substrate Omad, log[aTC] μM 2.16)?
Answer: 0.0042 and 0.007 and 0.0037

Question: What about the “Slope (velocity of substrate degradation in presence of aTC)” value ([1]; substrate Tig, log[aTC] μM 0.81) of the same compound?
Answer: 0.0454 and 0.0455 and 0.0453

Question: What about the “Slope (velocity of substrate degradation in presence of aTC)” value ([1]; substrate Tig, log[aTC] μM 1.41) of the same compound?
Answer: 0.0221 and 0.024 and 0.0233

Question: And the “Slope (velocity of substrate degradation in presence of aTC)” value ([1]; substrate Tig, log[aTC] μM 1.72)?
Answer: 0.0213 and 0.0168 and 0.0171

Question: What about the “Slope (velocity of substrate degradation in presence of aTC)” value ([1]; substrate Tig, log[aTC] μM 2.07) of the same compound?
Answer: 0.0168 and 0.0154 and 0.0122

Question: And the “Slope (velocity of substrate degradation in presence of aTC)” value ([1]; substrate Tig, log[aTC] μM 2.16)?
Answer: 0.0135 and 0.0131 and 0.0184

Question: What about the “degradation observed by optical absorbance” value [2] of the same compound?
Answer: time-dependent decrease at 440 nm

Question: What about the “ATC concentration inhibiting growth at fixed TET (Fig3a source data)” value (shortened to “ATC concentration inhibiting growth”) ([3]; TET 0) of the same compound?
Answer: 32

Question: And the “ATC concentration inhibiting growth” value ([3]; TET 1)?
Answer: 32

Question: And the “ATC concentration inhibiting growth” value ([3]; TET 2)?
Answer: 32

Question: And the “ATC concentration inhibiting growth” value ([3]; TET 4)?
Answer: 32

Question: What about the “ATC concentration inhibiting growth” value ([3]; TET 8) of the same compound?
Answer: 32

Question: And the “ATC concentration inhibiting growth” value ([3]; TET 16)?
Answer: 16

Question: What about the “ATC concentration inhibiting growth” value ([3]; TET 32) of the same compound?
Answer: 16

Question: And the “ATC concentration inhibiting growth” value ([3]; TET 64)?
Answer: 16

Question: What about the “ATC concentration inhibiting growth” value ([3]; TET 128) of the same compound?
Answer: 8

Question: What about the “ATC concentration inhibiting growth” value ([3]; TET 256) of the same compound?
Answer: 0

Question: And the MIC [4]?
Answer: 32 µg/mL

Question: And the MIC [5]?
Answer: 8 µg/mL

Question: And the MIC [6]?
Answer: 4 µg/mL

Question: And the “ATC concentration inhibiting growth” value ([7]; TET 0, panel concentrations in μg/mL per Supp. Data 3)?
Answer: 4

Question: And the “ATC concentration inhibiting growth” value ([7]; TET 1, panel concentrations in μg/mL per Supp. Data 3)?
Answer: 0

Question: And the “ATC concentration inhibiting growth” value ([8]; TET 0)?
Answer: 8

Question: And the “ATC concentration inhibiting growth” value ([8]; TET 1)?
Answer: 8

Question: And the “ATC concentration inhibiting growth” value ([8]; TET 2)?
Answer: 4

Question: What about the “ATC concentration inhibiting growth” value ([8]; TET 4) of the same compound?
Answer: 4

Question: What about the “ATC concentration inhibiting growth” value ([8]; TET 8) of the same compound?
Answer: 2

Question: What about the “ATC concentration inhibiting growth” value ([8]; TET 16) of the same compound?
Answer: 0.5

Question: And the “ATC concentration inhibiting growth” value ([8]; TET 32)?
Answer: 0

Question: What about the “Percent Ion Count (relative %)” value ([9]; time 0 min) of the same compound?
Answer: 100%

Question: What about the “Percent Ion Count (relative %)” value ([9]; time 5 min) of the same compound?
Answer: 95.7447%

Question: And the “Percent Ion Count (relative %)” value ([9]; time 30 min)?
Answer: 80%

Question: What about the “Percent Ion Count (relative %)” value ([9]; time 60 min) of the same compound?
Answer: 64.9123%

Question: What about the “Percent Ion Count (relative %)” value ([9]; time 90 min) of the same compound?
Answer: 74.5098%

Question: What about the “Percent Ion Count (relative %)” value ([9]; time 120 min) of the same compound?
Answer: 75.7895%

Question: And the “factor by which apparent kcat is lower than for tetracycline antibiotic substrates” value ([10]; Tet(X6))?
Answer: ≤ 7

Question: What about the “Slope (initial velocity of substrate degradation)” value ([10]; [Sub] 1.94805 μM) of the same compound?
Answer: 0.0038 and 0.0045 and 0.003

Question: And the “Slope (initial velocity of substrate degradation)” value ([10]; [Sub] 3.8961 μM)?
Answer: 0.0098 and 0.0073 and 0.0072

Question: What about the “Slope (initial velocity of substrate degradation)” value ([10]; [Sub] 6.16883 μM) of the same compound?
Answer: 0.0097 and 0.0093 and 0.009

Question: What about the “Slope (initial velocity of substrate degradation)” value ([10]; [Sub] 8.11688 μM) of the same compound?
Answer: 0.0054 and 0.0074 and 0.0086

Question: What about the “Slope (initial velocity of substrate degradation)” value ([10]; [Sub] 20.1299 μM) of the same compound?
Answer: 0.0109 and 0.0073 and 0.0099

Question: What about the “Slope (initial velocity of substrate degradation)” value ([10]; [Sub] 29.8701 μM) of the same compound?
Answer: 0.0108 and 0.0104 and 0.0106

Question: And the “Michaelis-menten nonlinear fit, best-fit Vmax” value ([10]; supplementary source data, Tet(X6) 0.4 µM)?
Answer: 0.01106
